Results taken from patent US10487054B2, “Therapeutic compounds” (REGENTS OF THE UNIVERSITY OF MINNESOTA, priority 2017, dated 2019).

Key:
JB6 P+ cells = test: Anchorage-independent cell growth assay (EGF-induced neoplastic transformation); assay type: cell-based, mouse; conditions: EGF 10 ng/ml, different concentrations
Protocol: Cells were exposed to EGF (10 ng/ml) and treated with increasing concentrations of compound 1. Representative photographs are shown and data are presented as mean values±S.D. from triplicate experiments. […] Cells were treated with different concentrations of compound 1 for several days and cell proliferation was determined by a crystal violet staining assay.
Cells (8×10^3/well) were seeded into 6-well plates with 0.3% Basal Medium Eagle agar containing 10% FBS with epidermal growth factor (EGF, 10 ng/ml) and different concentrations of compound 1 and then cultured for 1 to 2 weeks. Colonies were scored under a microscope using the Image-Pro PLUS (v6.) computer software program (Media Cybernetics. Rockville, Md.).

[1] = Absorbance scan by spectrophotometer; assay type: physicochemical
Protocol: Absorbance wavelengths of compound 1 were scanned using a Beckman DU®800 spectrophotometer.
In order to confirm whether compound 1 absorbs at UVA or UVB wavelengths, its ability to absorb SUV light between […] was examined. […] In addition, an anchorage-independent growth assay was performed to assess the effect of compound 1 on cell transformation. […] Similarly, cell proliferation was determined by a crystal violet staining assay.

SKH-1 hairless mice = test: SUV-induced mouse skin tumorigenesis, late-stage prevention model; assay type: in vivo
Protocol: Tumor volume was calculated according to the following formula: tumor volume (mm^3)=length×width×height×0.52. […] For 5B and 5C, data are represented as mean values±S.D. and differences were determined by one-way ANOVA. The asterisk (*) indicates a significant decrease compared to the group exposed to SUV only or the group treated with vehicle followed by SUV (***, p<0.001). […] Dorsal trunk skin samples were harvested and stained with H&E (left panels) or with an antibody to detect PCNA (right panels). […] Expression of PCNA was quantified using Image-Pro Plus software and stained cells were counted from 5 separate areas on each slide (lower panel). An average of 3 samples was calculated per group. Data are expressed as mean percent of control±S.D. and the asterisks indicate a significant difference in PCNA expression (***, p<0.001). […] The expression levels of phosphorylated and total proteins were analyzed by Western blot.
Mice were weighed once a week until week 28. […] SKH-1 hairless mice were treated as described in Materials and Methods. The mice in the control groups (n=9) received no vehicle/no SUV (n=3), vehicle/no SUV (n=3), or 1 mg compound 1/no SUV (n=3), respectively. The mice in the rest of the groups received SUV irradiation for 15 weeks 3 times a week. The mice in the vehicle/SUV-treated group (n=12) were treated with oil-in-water emulsion cream 3 times a week until the end of the experiment (28 weeks). The mice in the 0.1 mg/SUV or 1 mg/SUV groups (n=12 each) received treatment with compound 1 (0.1 or 1 mg, respectively) 3 times a week until the end of the experiment (28 weeks). The respective doses of oil-in-water emulsion cream or compound 1 were applied topically to the dorsal area. Tumor incidence and multiplicity were recorded weekly until the end of the experiment at week 28.
Female SKH-1 hairless mice were purchased from Charles River and were acclimated for 2 weeks before the study and had free access to food and water. All animals were maintained according to the guidelines approved by the University of Minnesota Institutional Animal Care and Use Committee (IACUC). The animals were housed in climate-controlled quarters with a 12-h light/dark cycle. The skin carcinogenesis experiments were conducted using 6-8 wk old mice with a mean body weight of 25 g. Skin carcinogenesis was induced by a solar simulated ultraviolet irradiation system. The SUV irradiation source (Q-Lab Corporation, Westlake, Ohio) emitted at wavelengths of 295 to 365 nm and the peak emission was 340 nm.
For the late-stage prevention model, the control and experimental groups were identical to those for the early prevention model. However, the experimental groups of mice were exposed to SUV irradiation 3 times a week for 15 weeks without application of vehicle or compound 1 in vehicle. At the end of 15 weeks, SUV exposure was stopped and application of vehicle with or without compound 1 was begun and continued for 13 weeks until week 28 at which time the study was discontinued and mice euthanized and tissues harvested.
At week 1, mice were irradiated with SUV at a dose of 36 kJ/m^2 UVA and 1.8 kJ/m^2 UVB. At week 6, the dose of SUV reached 60 kJ/m^2 UVA and 2.9 kJ/m^2 UVB and this dose was maintained from week 6 to week 15. The respective doses of vehicle or compound 1 were applied topically to the dorsal area. Mice were weighed and tumors were measured once a week until week 28 or when tumor load reached 1 cm^3 total volume. At that time mice were euthanized and one-half of each sample was immediately fixed in 10% formalin and processed for hematoxylin and eosin (H&E) staining and immunohistochemistry. The other one-half of the sample was frozen and used for Western blot analysis.
Skin tissues were embedded in paraffin and subjected to immunohistochemistry. Tissues were de-paraffinized and hydrated and then permeabilized with 0.5% Triton X-100/1×PBS for 10 min. […]

[2] = late-stage model, topical 0.1 or 1 mg, vs vehicle-treated group, 28 weeks

## O=C1Nc2ccc(C34CC5CC(CC(C5)C3)C4)cc2C1=NO [compound 1, 5-(adamantan-1-yl)-3-(hydroxyimino)indolin-2-one]
JB6 P+ cells
  EGF-induced colony formation: attenuated
[1]
  absorbance of UVA or UVB: did not show significant absorbance of UVA or UVB
[1]; scanned between 250 and 320 nm
  peak absorption: 259 nm
  wavelength range of main light absorption: 250-275 nm
SKH-1 hairless mice; late-stage model, H&E
  epidermal thickness: dramatically decreased
  formation of SCCs: inhibited
SKH-1 hairless mice; late-stage model, Western blot
  SUV-induced phosphorylation of ERK1/2, p38, and JNKs in mouse skin: dramatically suppressed
SKH-1 hairless mice; late-stage model, immunohistochemistry of skin
  expression of PCNA: decreased
SKH-1 hairless mice; [2]
  tumor multiplicity: significantly reduced
  tumor volume: significantly reduced
SKH-1 hairless mice; late-stage model, vs vehicle-treated mice
  malignancy rate: significantly decreased
SKH-1 hairless mice; late-stage prevention group
  SUV-induced tumor incidence: substantial suppression
SKH-1 hairless mice; topical application on dorsal skin, late-stage model, to week 28
  body weight: no effect on body weight
